Where two headings read alike, the source gives them in different places.
What was measured:
[1] = tested on: tumor-invaded lymph nodes and bones; assay: Castrated TRAMP+/FVB mice, IHC of metastatic lymph nodes and bone; type: in vivo, mouse; details: for αSMA expression and HA deposition in metastatic lymph nodes: 3 weeks
Procedure: (§1) Tissues from indicated mice were isolated, fixed in zinc buffered formalin overnight at 4° C., dehydrated, and embedded in paraffin. Sections (5 μm) were stained with hematoxylin and eosin (H&E). For immunohistochemistry, sections were deparaffinized, rehydrated, and then treated for antigen retrieval. After blocking in Protein Block Serum-Free solutions (DAKO), tissues were incubated with primary antibody overnight at 4° C. followed by incubation with biotinylated secondary antibody. Endogenous peroxidase was quenched in 3% H2O2 in water for 10 minutes at room temperature. Antibodies were visualized with avidin-biotin complex (Vectastain Elite; Vector Laboratories) using diaminobenzidine as the chromogen. Stained sections were analyzed with a Zeiss light microscope supplemented with Zen 3.3 Bule edition software.
For Olaparib treatment in mice, 13 weeks-old male TRAMP^+/FVB were surgical castrated, after 10 days n=16, were randomly distributed to receive vehicle, n=8, or Olaparib n=8 (5 mg/kg/, 5 days each, i.p.). Mice were euthanized 3 weeks after the initiation of the treatment. Prostate and other organs were collected and analyzed histologically.

PC3 + WPMY-1 tumors = assay: Subcutaneous xenograft co-implantation of PC3 and WPMY-1 cells in NSG mice; type: in vivo, mouse; details: Olaparib 40 mg/kg i.p. twice a week, 2 weeks
Procedure: For mouse xenografts using PC3 PCa cells and sgC or sgAP-1 WPMY-1 stromal cells. 7 weeks old NSG mice were surgical castrated and let androgen levels drop for 10 days. Cells were trypsinized washed two times in PBS and resuspend in DMEN. 1×10^6 PC3 and 1×10^6 sgC or sgAP1-A WPMY-1 for each mouse were resuspended in 100 μl DMEM: Matrigel (1:1) and injected subcutaneously into both flanks of immunocompromised NSG mice (PC3+sgC WPMY-1 n=4; PC3+sgAP-1 WPMY-1 n=4). Tumors were allowed to grow for 1 month. Mice were euthanized and tumors were collected and analyzed histologically. For Olaparib treatment in mouse xenografts. PC3 PCa cells and WPMY-1 stromal cells were trypsinized washed two times in PBS and resuspend in DMEN. 1×10^6 PC3 and 1×10^6 WPMY-1 for each mouse were resuspended in 100 μl DMEM: Matrigel (1:1) and injected subcutaneously into both flanks of immunocompromised NSG mice. Tumors were allowed to grow for 14 days, and mouse were randomly divided to receive vehicle, n=10, Olaparib (40 mg/kg, 2 days each week, i.p.), n=10 or Olaparib (40 mg/kg, 2 days each week, i.p.)+_PEGPH20 (0.0375 mg/Kg, 2 days each week, retroorbital injection) n=10. Tumors were measured twice a week. Mice were euthanized 14 days after the initiation of the treatment and tumors were collected and analyzed histologically. For Olaparib treatment in mice, 13 weeks-old male TRAMP^+, n=18, were randomly distributed to receive vehicle, n=9, or Olaparib (40 mg/kg/, 5 days each week, i.p.), n=9. Mice were euthanized 1 month after the initiation of the treatment. Prostate and other organs were collected and analyzed histologically.
Tissues from indicated mice were isolated, fixed in zinc buffered formalin overnight at 4° C., dehydrated, and embedded in paraffin. Sections (5 μm) were stained with hematoxylin and eosin (H&E). For immunohistochemistry, sections were deparaffinized, rehydrated, and then treated for antigen retrieval. […] Stained sections were analyzed with a Zeiss light microscope supplemented with Zen 3.3 Bule edition software.

PC3 cells = assay: Click-iT EdU proliferation of PC3 cells treated with CM from WPMY-1 cells; type: cell-based, human; details: CM from Olaparib-treated WPMY-1, 24 h
Procedure: WPMY-1 cells were cultured in DMEN containing 10% FBS (basal conditions) or 10% charcoal stripped FBS (ADT conditions), then the cells were treated with vehicle (DMSO), Olaparib 10 μM, Olaparib 10 μM+PEGPH20 2.5 μg/ml for 96 hours, refreshing media and stimuli at 48 hours, conditioned media (CM) was generated by collecting supernatant on day 4. PC3 cells were seeded in a black-walled well (Thermo Fisher) and serum starved overnight. CM from WPMY-1 cells was added to PC3 for 24 h. PC3 were exposed to EdU incorporation for the last 2 hours. Proliferating cells were detected using Click-iT EdU Alexa fluor 488 (Thermo Fisher) following the manufacturer's instructions. Pictures were taken using EVOS M5000 Imaging System and EdU positive were measured using Fiji (Schindelin et al., 2012).

WPMY-1 fibroblasts = assay: GSEA of RNAseq data from WPMY-1 fibroblasts; type: cell-based, human; details: for GSEA inflammatory signaling pathways (TNFα, IL-6, JAK-STAT): Olaparib 20 μM vs DMSO
Procedure: Total RNA was extracted using Quick-RNA MiniPrep kit (Zymo Research). Libraries were prepared from 200 ng of total RNA using the QuantSeq 3′ mRNA-Seq Library Prep Kit FWD for Illumina from Lexogen, and optional UMIs (Vienna, Austria). Barcoded libraries were pooled, and single end sequenced (1×75) on the Illumina NextSeq 500 using the High output V2.5 kit (Illumina Inc., San Diego CA).
(§2) Peaks were annotated with ChipSeeker R package. […].

WPMY-1 cells = assay: ATAC-seq chromatin accessibility in WPMY-1 cells; type: cell-based, human; details: Olaparib-treated WPMY-1 cells, 96 h
Procedure: The cell pellet was resuspended in 50 μl lysis buffer and then spun down 500×g for 10 minutes at 4° C. The nuclei pellet was resuspended into 50 μl transposition reaction mixture containing Tn5 transposase from Nextera DNA Library Prep Kit (Illumina) and incubated at 37° C. for 30 minutes. Then the transposase-associated DNA was purified using MinElute PCR purification kit (QIAGEN). To amplify the library, the DNA was first amplified for 5 cycles using indexing primer from Nextera kit and NEBNext High-Fidelity 2×PCR master mix. To reduce the PCR amplification bias, 5 μl of amplified DNA after the first 5 cycles was used to do qPCR of 20 cycles to decide the number of cycles for the second round of PCR. Usually, the maximum cycle of the second round of PCR is 5 cycles. Then the total amplified DNA was size selected to fragments less than 800 bp using SPRI beads. Quantification of the ATAC-seq library was done with QuBit. The size of the pooled library was examined by TapeStation. Barcoded ATAC-seq libraries were pooled and paired end sequenced (sX75) on the Illumina NextSeq 500 using the High output V2.5 kit (Illumina Inc., San Diego, CA).
as §2

RM1-BoMe3 metastases = assay: Caudal artery injection RM1-BoMe3 metastasis model; type: in vivo, mouse; details: Olaparib 40 mg/kg i.p., 3 weeks
Procedure: as §1
For the metastasis model, caudal artery injection was performed with 500000 RM1-BoMe3-RFP-Luc prostate cancer epithelial cells in 150 μl of PBS n=10 in 8-week-old C57B16 male mice. After 1-week luciferase was visualized using IVIS to detect signal in the lower limbs and in less frequently in visceral organs, mice with signal were randomly distributed to receive vehicle, n=5, or Olaparib n=5 (40 mg/kg/, 5 days each, i.p.). After 3 weeks, mice were euthanized and ex-vivo IVIS was performed in lower limbs, vertebrae, and visceral organs to detect metastasis sites. Tissues were collected and analyzed histologically.

O=C(c1cc(Cc2n[nH]c(=O)c3ccccc23)ccc1F)N1CCN(C(=O)C2CC2)CC1 [Olaparib]
HA in bone marrow stromal cells and growth plate [1]: increased HA deposition in the growth plate and stromal areas
αSMA expression and HA deposition in metastatic lymph nodes [1]: increased stromal content upon Olaparib treatment
αSMA expression and HA deposition in metastatic lymph nodes ([1]; listed as Ola): increased «SMA expression and higher hyaluronan (HA) deposition
HA in bone marrow stromal cells and growth plate ([1]; listed as Ola): higher levels of HA
desmoplastic response (collagen, HA, aSMA, p62) (PC3 + WPMY-1 tumors): strong desmoplastic response
tumor growth (weight, volume) (PC3 + WPMY-1 tumors): efficiently reduced tumor growth
PC3 proliferation (EdU positive cells) (PC3 cells): increased PC3 proliferation
GSEA inflammatory signaling pathways (TNFα, IL-6, JAK-STAT) (WPMY-1 fibroblasts): increased inflammatory related signatures
GSEA inflammatory signaling pathways (TNFα, IL-6, JAK-STAT) (WPMY-1 fibroblasts; listed as Ola): significant enrichment was found in inflammatory signaling pathways
GSEA signatures of extracellular matrix remodeling / CAF activation (WPMY-1 fibroblasts; basal or ADT conditions): enrichment of signatures corresponding to extracellular matrix remodeling
chromatin accessibility (WPMY-1 cells): strong decrease in chromatin accessibility across the genome
HA deposition in liver metastasis (IHC) (RM1-BoMe3 metastases): increased HA deposition in Olaparib-treated liver metastasis
TGFβ signaling in bone metastasis (nuclear pSMAD2) (RM1-BoMe3 metastases): increased pSMAD2 staining in bone metastasis
HA deposition in liver metastasis (IHC) (RM1-BoMe3 metastases; listed as Ola): deposition of HA was observed
TGFβ signaling in bone metastasis (nuclear pSMAD2) (RM1-BoMe3 metastases; listed as Ola): increased activation of TGFβ signaling

Source: patent publication US20250073234A1, “COMBINATION THERAPIES INCLUDING PARP1 INHIBITORS” (Cornell University, priority 2022, published 2025)
